In assay [1] the target is T1, Cannabinoid receptor 2 (Homo sapiens, UniProt P34972). The assay can be described thus: Displacement of [3H]CP55940 from beta-galactosidase reporter fused human CB2 receptor expressed in CHOK1 cell membranes at 1 uM after 1 hr by scintillation spectrometric analysis. Background: In a radioligand displacement assay an active substance lowers the binding of a labelled ligand.

The target of assay [2] is T1, Cannabinoid receptor 2. The assay is described as follows: Displacement of [3H]CP55940 from beta-galactosidase reporter fused human CB2 receptor expressed in CHOK1 cell membranes after 1 hr by scintillation spectrometric analysis.
The target in assay [3] is T2, Cannabinoid receptor 1 (Homo sapiens, UniProt P21554). The assay is described as follows: Displacement of [3H]CP55940 from beta-galactosidase reporter fused human CB1 receptor expressed in CHOK1 cell membranes at 1 uM after 1 hr by scintillation spectrometric analysis relative to control.
In assay [4] the target is T2, Cannabinoid receptor 1. The assay can be described thus: biochemical.

T2 sequence (P21554 whole entry, the tested form may be a part): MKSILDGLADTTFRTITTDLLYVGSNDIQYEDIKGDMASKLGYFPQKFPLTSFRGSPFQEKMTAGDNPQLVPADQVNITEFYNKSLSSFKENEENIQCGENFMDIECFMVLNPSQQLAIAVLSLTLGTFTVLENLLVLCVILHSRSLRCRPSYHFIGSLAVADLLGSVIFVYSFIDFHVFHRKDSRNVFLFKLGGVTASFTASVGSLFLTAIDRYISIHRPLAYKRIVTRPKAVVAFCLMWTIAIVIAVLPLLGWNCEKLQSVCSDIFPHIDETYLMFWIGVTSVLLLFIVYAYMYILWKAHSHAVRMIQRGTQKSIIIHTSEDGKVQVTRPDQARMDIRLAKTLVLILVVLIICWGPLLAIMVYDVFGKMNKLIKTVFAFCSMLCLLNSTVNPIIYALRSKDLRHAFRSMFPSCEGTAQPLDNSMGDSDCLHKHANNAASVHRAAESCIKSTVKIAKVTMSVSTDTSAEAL
T1 sequence (P34972 whole entry, the tested form may be a part): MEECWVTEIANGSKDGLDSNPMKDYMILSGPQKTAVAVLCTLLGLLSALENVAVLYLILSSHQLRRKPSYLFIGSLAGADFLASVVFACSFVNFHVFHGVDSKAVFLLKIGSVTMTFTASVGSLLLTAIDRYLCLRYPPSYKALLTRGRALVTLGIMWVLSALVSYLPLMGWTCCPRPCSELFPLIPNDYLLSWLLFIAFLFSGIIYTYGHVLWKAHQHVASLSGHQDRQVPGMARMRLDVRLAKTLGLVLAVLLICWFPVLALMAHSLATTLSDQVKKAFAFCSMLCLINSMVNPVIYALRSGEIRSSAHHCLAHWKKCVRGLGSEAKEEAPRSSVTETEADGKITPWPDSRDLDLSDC

By inhibition is commonly meant the relative decrease from the control value, in per cent. As for `O=C(CCc1nnc(-c2ccc(Br)cc2F)o1)Nc1ccc2c(c1)c1ccccc1n2CCO`, the inhibition on Cannabinoid receptor 2 [1] was under 50%.
The term Ki denotes a measure of affinity in units of concentration, obtained from inhibition or displacement. A lower Ki goes with tighter binding. On Cannabinoid receptor 2 [2], `N#Cc1cc(F)ccc1-c1nnc(CCC(=O)Nc2ccc3c(c2)c2ccccc2n3CCF)o1` gave a Ki of 219 nM. In addition, the inhibition on Cannabinoid receptor 1 [3] is -1%; on Cannabinoid receptor 2 [1], over 50%.
With `N#Cc1cc(F)ccc1-c1nnc(CCC(=O)Nc2ccc3c(c2)c2ccccc2n3CCO)o1`, the inhibition on Cannabinoid receptor 2 [1] is under 50%.
For `O=C(CCc1nc(-c2ccc(Br)cc2F)no1)Nc1ccc2c(c1)c1ccccc1n2CCF`, at Cannabinoid receptor 1 [3], the inhibition was -5%.
Turning to `O=C(CCc1nnc(-c2ccc(F)cc2Br)o1)Nc1ccc2c(c1)c1ccccc1n2CCO`, the inhibition on Cannabinoid receptor 2 [1] was under 50%.
As for `O=C(CCc1nnc(-c2ccc(Br)cc2F)o1)Nc1ccc2c(c1)c1ccccc1n2CCF`, at Cannabinoid receptor 2 [2], the affinity, expressed as Ki, was 318 nM. In addition, the inhibition was -8% at Cannabinoid receptor 1 [3] and over 50% at Cannabinoid receptor 2 [1].
With `N#Cc1cc(F)ccc1-c1noc(CCC(=O)Nc2ccc3c(c2)c2ccccc2n3CCF)n1`, the inhibition on Cannabinoid receptor 1 [3] is -8%.
Turning to `CCCCCCC(C)(C)c1cc(O)c2c(c1)OC(C)(C)[C@@H]1CC=C(CO)C[C@@H]21`, the Ki at Cannabinoid receptor 1 [4] amounted to 9.55 nM.
`O=C(CCc1nnc(-c2ccc(F)cc2Br)o1)Nc1ccc2c(c1)c1ccccc1n2CCF` returned a Ki at Cannabinoid receptor 2 [2] of 25 nM. For the same compound, the inhibition at Cannabinoid receptor 1 [3] is 22%; at Cannabinoid receptor 2 [1], over 50%.

These data come from ChEMBL document CHEMBL4261554, “Bioisosteric replacement of central 1,2,4-oxadiazole ring of high affinity CB2 ligands by regioisomeric 1,3,4-oxadiazole ring” (Medchemcomm, 2017).
